Laboratory results: US9637485B2, “6,7-dihydrobenzo[a]quinolizin-2-one derivatives for the treatment and prophylaxis of hepatitis B virus infection” (Hoffmann-La Roche Inc., priority 2014, dated 2017)
pIC50: −log10 of the molar value.

system: HBV DNA; assay: HBV DNA assay (real-time qPCR/TaqMan of extracellular HBV DNA, HepG2.2.15 cells); type: cell-based; conditions: Hepatitis B virus, 144 h, supernatant six days after initial administration, qPCR, read-out: IC50 (Anti HBV DNA production activity)
Description: (§1) HepG2.2.15 cells (Acs et al. Proc Natl Acad Sci USA, 84, (1987), 4641-4), a constitutively HBV-expressing cell line were cultured in DMEM+Glutamax-I medium (Invitrogen, Carlsbad, Calif., USA, Catalog number: 11320082), supplemented with 10% fetal bovine serum (Invitrogen, Catalog number: 10099141) and G418 (Invitrogen, Catalog number: 10131027) at a final concentration of 200 mg/L and maintained in 5% CO2 at 37° C.
The assay employs real-time qPCR (TaqMan) to directly measure extracellular HBV DNA copy number. HepG2.2.15 cells were plated in 96-well microtiter plates. Only the interior wells were utilized to reduce “edge effects” observed during cell culture, the exterior wells were filled with complete medium to help minimize sample evaporation. On the following day, the HepG2.2.15 cells were washed and the medium was replaced with complete medium containing various concentrations of a test compound in triplicate. 3TC was used as the positive control, while media alone was added to cells as a negative control (virus control, VC). Three days later, the culture medium was replaced with fresh medium containing the appropriately diluted drug. […] Antiviral activity was calculated from the reduction in HBV DNA levels (IC50).

SMILES | pIC50
COCCCOc1cc2c(cc1OC)-c1cc(=O)c(C(=O)O)cn1C(C(C)(C)COC)C2 (single isomer, unassigned) [Example 28, (+)-10-Methoxy-6-(2-methoxy-1,1-dimethyl-ethyl)-9-(3-methoxypropoxy)-2-oxo-6,7-dihydrobenzo[a]quinolizine-3-carboxylic acid] | 9.30
COCCCOc1cc2c(cc1OC)-c1cc(=O)c(C(=O)O)cn1[C@H](C(C)(C)CO)C2 (single isomer, unassigned) [Example 25, (+)-6-(2-Hydroxy-1,1-dimethyl-ethyl)-10-methoxy-9-(3-methoxypropoxy)-2-oxo-6,7-dihydrobenzo[a]quinolizine-3-carboxylic acid] | > 7.49

system: HBsAg; assay: HBsAg assay (CLIA of secreted HBsAg in HepG2.2.15 culture supernatant); type: cell-based, HBV; conditions: Hepatitis B virus, HepG2.2.15, read-out: IC50 (HBsAg secretion reduced by 50% compared to the no drug control), HepG2.2.15 cells, culture supernatant, HBsAg CLIA
Description: as §1
HepG2.2.15 cells were seeded in duplicate into white, 96-well plates at 1.5×10^4 cells/well. The cells were treated with a three-fold serial dilution series of the compounds in DMSO. The final DMSO concentration in all wells was 1% and DMSO was used as no drug control.
The HBsAg chemiluminescence immunoassay (CLIA) kit (Autobio Diagnostics Co., Zhengzhou, China, Catalog number: CL0310-2) was used to measure the levels of secreted HBV antigens semi-quantitatively. For the detection 50 μL/well culture supernatant was used and HBsAg was quantified using HBsAg chemiluminescence immunoassay (CLIA) kit (Autobio Diagnostics Co., Zhengzhou, China, Catalog number: CL0310-2), 50 μl of the supernatant was transferred to the CLIA assay plate and 50 μL of enzyme conjugate reagent was added into each well. The plates were sealed and gently agitated for 1 hour at room temperature. The supernatant-enzyme-mixture was discarded and wells were washed 6 times with 300 μL of PBS. The residual liquid was removed by plating the CLIA plate right side down on absorbent tissue paper. 25 μL of substrates A and B were added to each well. Luminance was measured using a luminometer (Mithras LB 940 Multimode Microplate Reader) after 10 minutes incubation. Dose-response curves were generated and the IC50 value was extrapolated by using the E-WorkBook Suite (ID Business Solutions Ltd., Guildford, UK). The IC50 was defined as the compound concentration (or conditioned media log dilution) at which HBsAg secretion was reduced by 50% compared to the no drug control.

SMILES | pIC50
COCCOc1cc2c(cc1Cl)-c1cc(=O)c(C(=O)O)cn1C(CS(C)(=O)=O)C2 (centres unmarked) [Example 34, 10-Chloro-9-(2-methoxyethoxy)-6-(methylsulfonylmethyl)-2-oxo-6,7-dihydrobenzo[a]quinolizine-3-carboxylic acid] | 5.47
COCC(C)(C)C1Cc2cc(OCCCO)c(OC)cc2-c2cc(=O)c(C(=O)O)cn21 (centres unmarked) [Example 6, 9-(3-Hydroxypropoxy)-10-methoxy-6-(2-methoxy-1,1-dimethyl-ethyl)-2-oxo-6,7-dihydrobenzo[a]quinolizine-3-carboxylic acid] | 7.66
COCC(C)(C)C1Cc2cc(OCCCSC)c(OC)cc2-c2cc(=O)c(C(=O)O)cn21 (centres unmarked) [Example 10, 10-Methoxy-6-(2-methoxy-1,1-dimethyl-ethyl)-9-(3-methylsulfanylpropoxy)-2-oxo-6,7-dihydrobenzo[a]quinolizine-3-carboxylic acid] | 8.22
CCOc1cc2c(cc1OCC)-c1cc(=O)c(C(=O)O)cn1C(CN1CCCC1)C2 (centres unmarked) [Example 42, 9,10-Diethoxy-2-oxo-6-(pyrrolidin-1-ylmethyl)-6,7-dihydrobenzo[a]quinolizine-3-carboxylic acid] | 6.67
COCC(C)(C)C1Cc2cc(OCCCS(C)(=O)=O)c(OC)cc2-c2cc(=O)c(C(=O)O)cn21 (centres unmarked) [Example 15, 10-Methoxy-6-(2-methoxy-1,1-dimethyl-ethyl)-9-(3-methylsulfonylpropoxy)-2-oxo-6,7-dihydrobenzo[a]quinolizine-3-carboxylic acid] | 6.91
COCCOc1cc2c(cc1Cl)-c1cc(=O)c(C(=O)O)cn1C(CSC)C2 (centres unmarked) [Example 33, 10-Chloro-9-(2-methoxyethoxy)-6-(methylsulfanylmethyl)-2-oxo-6,7-dihydrobenzo[a]quinolizine-3-carboxylic acid] | 6.93
COCC(C)(C)C1Cc2cc(OCCCN3CCOCC3)c(OC)cc2-c2cc(=O)c(C(=O)O)cn21 (centres unmarked) [Example 4, 10-Methoxy-6-(2-methoxy-1,1-dimethyl-ethyl)-9-(3-morpholinopropoxy)-2-oxo-6,7-dihydrobenzo[a]quinolizine-3-carboxylic acid] | 7.85
COCC(C)(C)C1Cc2cc(OCC(C)(C)CO)c(OC)cc2-c2cc(=O)c(C(=O)O)cn21 (centres unmarked) [Example 7, 9-(3-Hydroxy-2,2-dimethyl-propoxy)-10-methoxy-6-(2-methoxy-1,1-dimethyl-ethyl)-2-oxo-6,7-dihydrobenzo[a]quinolizine-3-carboxylic acid] | 8.05
COCC(C)(C)C1Cc2cc(OCCCN3CCCC3)c(OC)cc2-c2cc(=O)c(C(=O)O)cn21 (centres unmarked) [Example 11, 10-Methoxy-6-(2-methoxy-1,1-dimethyl-ethyl)-2-oxo-9-(3-pyrrolidin-1-ylpropoxy)-6,7-dihydrobenzo[a]quinolizine-3-carboxylic acid] | 6.28
CCOc1cc2c(cc1OCC)-c1cc(=O)c(C(=O)O)cn1C(CN(C)C)C2 (centres unmarked) [Example 43, 6-[(Dimethylamino)methyl]-9,10-diethoxy-2-oxo-6,7-dihydrobenzo[a]quinolizine-3-carboxylic acid] | 6.87
COCC(C)(C)C1Cc2cc(OCCCN3CCCC3=O)c(OC)cc2-c2cc(=O)c(C(=O)O)cn21 (centres unmarked) [Example 12, 10-Methoxy-6-(2-methoxy-1,1-dimethyl-ethyl)-2-oxo-9-[3-(2-oxopyrrolidin-1-yl)propoxy]-6,7-dihydrobenzo[a]quinolizine-3-carboxylic acid] | 6.72
COCCCOc1cc2c(cc1Cl)-c1cc(=O)c(C(=O)O)cn1C(C1CCOCC1)C2 (centres unmarked) [Example 19, 10-Chloro-9-(3-methoxypropoxy)-2-oxo-6-tetrahydropyran-4-yl-6,7-dihydrobenzo[a]quinolizine-3-carboxylic acid] | 7.06
COCC(C)(C)C1Cc2cc(OCCCn3cccn3)c(OC)cc2-c2cc(=O)c(C(=O)O)cn21 (centres unmarked) [Example 44, 10-Methoxy-6-(2-methoxy-1,1-dimethyl-ethyl)-2-oxo-9-(3-pyrazol-1-ylpropoxy)-6,7-dihydrobenzo[a]quinolizine-3-carboxylic acid] | 6.72
CCOc1cc2c(cc1OCC)-c1cc(=O)c(C(=O)O)cn1C(COC(C)=O)C2 (centres unmarked) [Example 36, 6-(Acetoxymethyl)-9,10-diethoxy-2-oxo-6,7-dihydrobenzo[a]quinolizine-3-carboxylic acid] | 6.60

same assay, conditions: read-out: IC50 (HBsAg secretion reduced by 50% compared to the no drug control); HepG2.2.15 cells, culture supernatant, HBsAg CLIA

SMILES | pIC50
COCCCOc1cc2c(cc1OC)-c1cc(=O)c(C(=O)O)cn1C(C(C)(C)COC)C2 (single isomer, unassigned) [Example 28, (+)-10-Methoxy-6-(2-methoxy-1,1-dimethyl-ethyl)-9-(3-methoxypropoxy)-2-oxo-6,7-dihydrobenzo[a]quinolizine-3-carboxylic acid] | 8.52
COCCCOc1cc2c(cc1OC)-c1cc(=O)c(C(=O)O)cn1[C@H](C(C)(C)CO)C2 (single isomer, unassigned) [Example 25, (+)-6-(2-Hydroxy-1,1-dimethyl-ethyl)-10-methoxy-9-(3-methoxypropoxy)-2-oxo-6,7-dihydrobenzo[a]quinolizine-3-carboxylic acid] | 8.70
COCCCOc1cc2c(cc1Cl)-c1cc(=O)c(C(=O)O)cn1C(C(C)(C)COC)C2 (single isomer, unassigned) [Example 32, (−)-10-chloro-6-(2-methoxy-1,1-dimethyl-ethyl)-9-(3-methoxypropoxy)-2-oxo-6,7-dihydrobenzo[a]quinolizine-3-carboxylic acid] | 5.08
COCCCOc1cc2c(cc1OC)-c1cc(=O)c(C(=O)O)cn1[C@H](C(C)(C)O)C2 (single isomer, unassigned) [Example 21, (+)-6-(1-Hydroxy-1-methyl-ethyl)-10-methoxy-9-(3-methoxypropoxy)-2-oxo-6,7-dihydrobenzo[a]quinolizine-3-carboxylic acid] | 7.39
